Peptide exchange data for 66 substances are collected here from patent US20170189504A1, “NOVEL PEPTIDES AND COMBINATION OF PEPTIDES FOR USE IN IMMUNOTHERAPY AGAINST VARIOUS CANCERS” (immatics biotechnologies GmbH, priority 2015, published 2017).

The experiment concerns HLA-A*02. Nature of the experiment: MHC binding assay, UV-ligand exchange with β2m ELISA, HLA-A*02 (Table 20). On the set-up: species or system human. To be noted: binding to HLA-A*02 ranged by peptide exchange yield (UV-ligand exchange, β2m ELISA). The source says:
Candidate peptides for T cell based therapies according to the present invention were further tested for their MHC binding capacity (affinity). The individual peptide-MHC complexes were produced by UV-ligand exchange, where a UV-sensitive peptide is cleaved upon UV-irradiation, and exchanged with the peptide of interest as analyzed. Only peptide candidates that can effectively bind and stabilize the peptide-receptive MHC molecules prevent dissociation of the MHC complexes. To determine the yield of the exchange reaction, an ELISA was performed based on the detection of the light chain ((β2m) of stabilized MHC complexes. The assay was performed as generally described in Rodenko et al. (Rodenko et al., 2006).
96 well MAXISorp plates (NUNC) were coated over night with 2 ug/ml streptavidin in PBS at room temperature, washed 4× and blocked for 1 h at 37° C. in 2% BSA containing blocking buffer. Refolded HLA-A*02:01/MLA-001 monomers served as standards, covering the range of 15-500 ng/ml. Peptide-MHC monomers of the UV-exchange reaction were diluted 100 fold in blocking buffer. Samples were incubated for 1 h at 37° C., washed four times, incubated with 2 ug/ml HRP conjugated anti-β2m for 1 h at 37° C., washed again and detected with TMB solution that is stopped with […]. Absorption was measured at 450 nm. Candidate peptides that show a high exchange yield (preferably higher than 50%, most preferred higher than 75%) are generally preferred for a generation and production of antibodies or fragments thereof, and/or T cell receptors or fragments thereof, as they show sufficient avidity to the MHC molecules and prevent dissociation of the MHC complexes.
In general terms: In an ELISA, binding on a coated surface is turned into a signal by an enzyme label.
As for “40 (VLIDPQWVLTA; listed as Homo sapiens) [compound 40]”, the Peptide exchange entry is given as “+++ (50%-75% = +++)”.

On to “101 (ALADFMLSL; listed as Homo sapiens) [compound 101]”, for which the Peptide exchange result is listed as “+++ (50%-75% = +++)”.

As for “19 (SISDNVWEV; listed as Homo sapiens) [compound 19]”, the Peptide exchange entry was “+++ (50%-75% = +++)”.

In the case of “236 (STIAILNSV; listed as Homo sapiens) [compound 236]”, the Peptide exchange result is “+++ (50%-75% = +++)”.

For “100 (ALLGMIIVGV; listed as Homo sapiens) [compound 100]”, the Peptide exchange result is listed as “+ (<20% = +)”.

Turning to “79 (VTFKEYVTV; listed as Homo sapiens) [compound 79]”, the Peptide exchange entry is on record as “++ (20%-49% = ++)”.

Consider “142 (ILVEGISTV; listed as Homo sapiens) [compound 142]”, for which the Peptide exchange entry is recorded as “+++ (50%-75% = +++)”.

As to “82 (FIFDEAEKL; listed as Homo sapiens) [compound 82]”, the Peptide exchange result is “+ (<20% = +)”.

In the case of “21 (AIQDEIRSV; listed as Homo sapiens) [compound 21]”, the Peptide exchange result is reported as “+++ (50%-75% = +++)”.

With “10 (GIAGSLKTV; listed as Homo sapiens) [compound 10]”, the Peptide exchange entry is “+++ (50%-75% = +++)”.

Consider “255 (SLLHFTENL; listed as Homo sapiens) [compound 255]”, for which the Peptide exchange entry is “+++ (50%-75% = +++)”.

Turning to “113 (FLERGLESA; listed as Homo sapiens) [compound 113]”, the Peptide exchange result is reported as “++ (20%-49% = ++)”.

Turning to “44 (SLFETAWEA; listed as Homo sapiens) [compound 44]”, the Peptide exchange entry is “+++ (50%-75% = +++)”.

As to “111 (AIVDLIHDI; listed as Homo sapiens) [compound 111]”, the Peptide exchange result was “++ (20%-49% = ++)”.

Turning to “48 (QVIEDSTGV; listed as Homo sapiens) [compound 48]”, the Peptide exchange entry is reported as “++ (20%-49% = ++)”.

In the case of “238 (GLYERPTAA; listed as Homo sapiens) [compound 238]”, the Peptide exchange entry was “++ (20%-49% = ++)”.

On to “246 (TVSDVLNSV; listed as Homo sapiens) [compound 246]”, for which the Peptide exchange entry was “+++ (50%-75% = +++)”.

“75 (AVIKFLELL; listed as Homo sapiens) [compound 75]”: the Peptide exchange result was “+++ (50%-75% = +++)”.

In the case of “107 (LLVPTSGIYFV; listed as Homo sapiens) [compound 107]”, the Peptide exchange entry is given as “+++ (50%-75% = +++)”.

Regarding “265 (NTCPYVHNI; listed as Homo sapiens) [compound 265]”, the Peptide exchange entry is on record as “+++ (50%-75% = +++)”.

Consider “123 (VLDPALPALV; listed as Homo sapiens) [compound 123]”, for which the Peptide exchange entry is “++ (20%-49% = ++)”.

As for “264 (KLFPQETLFL; listed as Homo sapiens) [compound 264]”, the Peptide exchange entry is reported as “+++ (50%-75% = +++)”.

Turning to “62 (ALNPELVQA; listed as Homo sapiens) [compound 62]”, the Peptide exchange entry is listed as “++ (20%-49% = ++)”.

Regarding “122 (GVVDPVHGV; listed as Homo sapiens) [compound 122]”, the Peptide exchange entry was “++ (20%-49% = ++)”.

As for “120 (VTPVTVSAV; listed as Homo sapiens) [compound 120]”, the Peptide exchange entry is recorded as “+ (<20% = +)”.

As to “83 (GQASYFYVA; listed as Homo sapiens) [compound 83]”, the Peptide exchange result was “++ (20%-49% = ++)”.

As for “125 (SLADYEHFV; listed as Homo sapiens) [compound 125]”, the Peptide exchange entry is recorded as “++++ (≧75% = ++++)”.

“46 (SQFPLPLAV; listed as Homo sapiens) [compound 46]”: the Peptide exchange entry is listed as “++ (20%-49% = ++)”.

For “87 (TIYKDFVYI; listed as Homo sapiens) [compound 87]”, the Peptide exchange entry is “++ (20%-49% = ++)”.

As for “104 (ALISWQPPRA; listed as Homo sapiens) [compound 104]”, the Peptide exchange result is “+++ (50%-75% = +++)”.

Turning to “260 (ILLEKILSL; listed as Homo sapiens) [compound 260]”, the Peptide exchange result is listed as “+++ (50%-75% = +++)”.

For the substance “153 (FISERVEVV; listed as Homo sapiens) [compound 153]”, the Peptide exchange result is “++++ (≧75% = ++++)”.

“72 (FLTAINYLL; listed as Homo sapiens) [compound 72]”: the Peptide exchange result is reported as “+++ (50%-75% = +++)”.

Regarding “119 (FIIQGLRSVGA; listed as Homo sapiens) [compound 119]”, the Peptide exchange result is “+++ (50%-75% = +++)”.

On to “15 (YLDLSHNQL; listed as Homo sapiens) [compound 15]”, for which the Peptide exchange result is reported as “+++ (50%-75% = +++)”.

Turning to “94 (LLLPAVPVGA; listed as Homo sapiens) [compound 94]”, the Peptide exchange result was “+++ (50%-75% = +++)”.

Regarding “42 (LLDSVSRL; listed as Homo sapiens) [compound 42]”, the Peptide exchange result is “+ (<20% = +)”.

On to “39 (HLLEGSVGV; listed as Homo sapiens) [compound 39]”, for which the Peptide exchange entry was “+++ (50%-75% = +++)”.

As to “258 (LLSERFINV; listed as Homo sapiens) [compound 258]”, the Peptide exchange entry is “++++ (≧75% = ++++)”.

In the case of “95 (GLLGSLFFL; listed as Homo sapiens) [compound 95]”, the Peptide exchange result is given as “++++ (≧75% = ++++)”.

Regarding “110 (FLLGVSKEV; listed as Homo sapiens) [compound 110]”, the Peptide exchange entry is “+++ (50%-75% = +++)”.

For the substance “250 (SLAPATPEV; listed as Homo sapiens) [compound 250]”, the Peptide exchange entry is “+++ (50%-75% = +++)”.

Consider “237 (ALAPHLDDA; listed as Homo sapiens) [compound 237]”, for which the Peptide exchange entry is reported as “+++ (50%-75% = +++)”.

Regarding “105 (ALLGTKILL; listed as Homo sapiens) [compound 105]”, the Peptide exchange result was “+++ (50%-75% = +++)”.

Consider “126 (QMFQYFITV; listed as Homo sapiens) [compound 126]”, for which the Peptide exchange result was “++++ (≧75% = ++++)”.

As for “55 (SLATKIVEA; listed as Homo sapiens) [compound 55]”, the Peptide exchange entry is reported as “+++ (50%-75% = +++)”.

Regarding “57 (TVFTDHMLTV; listed as Homo sapiens) [compound 57]”, the Peptide exchange result is “++ (20%-49% = ++)”.

“30 (AMIEEVFEA; listed as Homo sapiens) [compound 30]”: the Peptide exchange entry was “++ (20%-49% = ++)”.

In the case of “115 (SLDPDTLPAV; listed as Homo sapiens) [compound 115]”, the Peptide exchange entry was “++ (20%-49% = ++)”.

As for “78 (TVVTRLDEI; listed as Homo sapiens) [compound 78]”, the Peptide exchange entry is “++ (20%-49% = ++)”.

As for “53 (KMVGLVVAI; listed as Homo sapiens) [compound 53]”, the Peptide exchange entry is “+++ (50%-75% = +++)”.

In the case of “41 (ALFENTPKA; listed as Homo sapiens) [compound 41]”, the Peptide exchange entry is “++ (20%-49% = ++)”.

“146 (ALHFSEDEI; listed as Homo sapiens) [compound 146]”: the Peptide exchange entry is “++ (20%-49% = ++)”.

For the substance “117 (KMPDVELFV; listed as Homo sapiens) [compound 117]”, the Peptide exchange entry is “+++ (50%-75% = +++)”.

For “234 (LLSPHNPAL; listed as Homo sapiens) [compound 234]”, the Peptide exchange entry is given as “+++ (50%-75% = +++)”.

Take “152 (MMVGDLLEV; listed as Homo sapiens) [compound 152]”: the Peptide exchange result was “+++ (50%-75% = +++)”.

Regarding “51 (LLFSRLCGA; listed as Homo sapiens) [compound 51]”, the Peptide exchange result was “++++ (≧75% = ++++)”.

As for “108 (ILLKNLVTI; listed as Homo sapiens) [compound 108]”, the Peptide exchange result is reported as “++ (20%-49% = ++)”.

For “124 (KVMATIEKV; listed as Homo sapiens) [compound 124]”, the Peptide exchange entry is “++ (20%-49% = ++)”.

Turning to “253 (ALAELIDNSL; listed as Homo sapiens) [compound 253]”, the Peptide exchange result is recorded as “+++ (50%-75% = +++)”.

“121 (FTIFRTISV; listed as Homo sapiens) [compound 121]”: the Peptide exchange result is given as “+++ (50%-75% = +++)”.

For the substance “34 (FLLATEVVTV; listed as Homo sapiens) [compound 34]”, the Peptide exchange entry is recorded as “++++ (≧75% = ++++)”.

On to “263 (VLLSEQGDVKL; listed as Homo sapiens) [compound 263]”, for which the Peptide exchange result is recorded as “++ (20%-49% = ++)”.

Consider “239 (KMNESTRSV; listed as Homo sapiens) [compound 239]”, for which the Peptide exchange result is on record as “++ (20%-49% = ++)”.

For the substance “156 (ILGDLSHLL; listed as Homo sapiens) [compound 156]”, the Peptide exchange result is reported as “+++ (50%-75% = +++)”.

On to “86 (SVDSHFQEV; listed as Homo sapiens) [compound 86]”, for which the Peptide exchange entry was “++ (20%-49% = ++)”.
